Laboratory results: US11078170B2 (Assembly Biosciences, Inc., priority 2017, dated 2021)

These compounds were tested on HBV viral production from HepAD38 cells (assay: Activity of test compounds on viral production from HepAD38 cells (viral load by qPCR of HBV core sequence in supernatant)). Conditions: Hepatitis B virus, 120 h, 5 days incubation, HBV DNA in supernatant by qPCR, top concentration 10 μM, read-out: Viral Load EC50 Activity range.
Assay type: cell-based
Outline: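 HepAD38 cells, 50,000/well in tetracycline-free 2% FBS medium, treated 5 days at 37° C. with compound from 10 μM top concentration. HBV DNA in supernatant quantified by TaqMan qPCR of core sequence against DNA standards, relative to DMSO wells; CellTiter-Glo viability read in parallel. EC50/CC50 from four-parameter logistic fit.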
In the case of `CN1[C@H](C(=O)Nc2ccc(F)c(Br)c2)C[C@H](c2ncc(-c3cn(C)cn3)s2)NS1(=O)=O` [HBV-CSU-369, (3S,5R)—N-(3-bromo-4-fluorophenyl)-2-methyl-5-(5-(1-methyl-1H-imidazol-4-yl)thiazol-2-yl)-1,2,6-thiadiazinane-3-carboxamide 1,1-dioxide], the EC50 is reported as < 1000 nM.
For `Cc1cc(C2CC(C(=O)Nc3ccc(F)c(Cl)c3)N(C)S(=O)(=O)N2)sc1-c1cnn(C)c1` (racemic) [HBV-CSU-300, Cis-N-(3-Chloro-4-fluorophenyl)-5-(4-methyl-5-(1-methyl-1H-pyrazol-4-yl)thiophen-2-yl)-2-methyl-1,2,6-thiadiazinane-3-carboxamide 1,1-dioxide], the EC50 was < 1000 nM.
In the case of `CN1C(C(=O)Nc2ccc(F)c(Cl)c2)CC(c2cccc(-c3cnn(C)c3)c2)NS1(=O)=O` (racemic) [HBV-CSU-247, Cis-N-(3-chloro-4-fluorophenyl)-2-methyl-5-(3-(1-methyl-1H-pyrazol-4-yl)phenyl)-1,2,6-thiadiazinane-3-carboxamide 1,1-dioxide], the EC50 is reported as < 1000 nM.
For `CCOCCN1[C@H](C(=O)Nc2ccc(F)c(Cl)c2)C[C@H](c2nccs2)NS1(=O)=O` (relative stereo) [HBV-CSU-142-ISO-II, Cis-N-(3-Chloro-4-fluorophenyl)-2-(2-ethoxyethyl)-5-(thiazol-2-yl)-1,2,6-thiadiazinane-3-carboxamide 1,1-dioxide], the EC50 was < 1000 nM.
With `COc1ccc(-c2csc([C@@H]3C[C@H](C(=O)Nc4ccc(F)c(Cl)c4)N(C)S(=O)(=O)N3)c2)cc1` [HBV-CSU-241-ISO-II] the EC50 was 1000 to 5000 nM.
For `[2H]C([2H])([2H])N1[C@H](C(=O)Nc2ccc(F)c(Cl)c2)C[C@H](c2ccc(-c3cn(C)cn3)s2)NS1(=O)=O` [HBV-CSU-373-ISO-I, Cis-N-(3-Chloro-4-fluorophenyl)-2-(methyl-d3)-5-(5-(1-methyl-1H-imidazol-4-yl)thiophen-2-yl)-1,2,6-thiadiazinane-3-carboxamide 1,1-dioxide], the EC50 was < 1000 nM.
In the case of `CN1C(C(=O)Nc2ccc(F)cc2)CC(c2cccs2)NS1(=O)=O` (racemic) [HBV-CSU-007, Cis-N-(4-Fluorophenyl)-2-methyl-5-(thiophen-2-yl)-1,2,6-thiadiazinane-3-carboxamide 1,1-dioxide], the EC50 is reported as < 1000 nM.
With `CN1[C@H](C(=O)Nc2cccc(C#N)c2)C[C@H](c2cccs2)NS1(=O)=O` [HBV-CSU-020-ISO-I, Cis-N-(3-cyanophenyl)-2-methyl-5-(thiophen-2-yl)-1,2,6-thiadiazinane-3-carboxamide 1,1-dioxide] the EC50 was < 1000 nM.
For `Cc1cccc(NC(=O)C2CC(c3cccs3)NS(=O)(=O)N2C)c1` (racemic) [HBV-CSU-013, Cis-2-Methyl-5-(thiophen-2-yl)-N-(m-tolyl)-1,2,6-thiadiazinane-3-carboxamide 1,1-dioxide], the EC50 was < 1000 nM.
In the case of `[2H]C1[C@]([2H])(c2ccc(-c3cn(C([2H])([2H])[2H])cn3)s2)NS(=O)(=O)N(C([2H])([2H])[2H])[C@]1([2H])C(=O)Nc1ccc(F)c(Cl)c1` (stereo in doubt) [HBV-CSU-378-ISO-I, Cis-N-(3-chloro-4-fluorophenyl)-2-(methyl-d3)-5-(5-(1-(methyl-d3)-1H-imidazol-4-yl)thiophen-2-yl)-1,2,6-thiadiazinane-3,4,5-d3-3-carboxamide 1,1-dioxide], the EC50 is reported as < 1000 nM.
In the case of `[2H]C1[C@]([2H])(c2ccc(Br)s2)NS(=O)(=O)N(C)[C@]1([2H])C(=O)Nc1ccc(F)c(Cl)c1` (stereo in doubt) [HBV-CSU-371-ISO-I, Cis-5-(5-Bromothiophen-2-yl)-N-(3-chloro-4-fluorophenyl)-2-methyl-1,2,6-thiadiazinane-3,4,5-d3-3-carboxamide 1,1-dioxide], the EC50 is reported as < 1000 nM.
`CN1C(C(=O)Nc2cccc(Br)c2)CC(c2cccs2)NS1(=O)=O` (stereo not drawn) [HBV-CSU-017, Cis-N-(3-Bromophenyl)-2-methyl-5-(thiophen-2-yl)-1,2,6-thiadiazinane-3-carboxamide 1,1-dioxide] was tested, and the EC50 was < 1000 nM.
With `CN1C(C(=O)Nc2ccc(F)c(Cl)c2)CC(c2ccc(-c3cnco3)s2)NS1(=O)=O` (racemic) [HBV-CSU-269, Cis-N-(3-Chloro-4-fluorophenyl)-2-methyl-5-(5-(oxazol-5-yl)thiophen-2-yl)-1,2,6-thiadiazinane-3-carboxamide 1,1-dioxide] the EC50 was < 1000 nM.
For `CN1[C@H](C(=O)Nc2cccc(Cl)c2)C[C@H](c2cccs2)NS1(=O)=O` [HBV-CSU-010-ISO-I, Cis-N-(3-chlorophenyl)-2-methyl-5-(thiophen-2-yl)-1,2,6-thiadiazinane-3-carboxamide 1,1-dioxide], the EC50 was < 1000 nM.
In the case of `CN1[C@H](C(=O)Nc2ccc(F)c(Cl)c2)C[C@H](c2cccc(Cl)c2)NS1(=O)=O` [HBV-CSU-261-ISO-I, Cis-N-(3-Chloro-4-fluorophenyl)-5-(3-chlorophenyl)-2-methyl-1,2,6-thiadiazinane-3-carboxamide 1,1-dioxide], the EC50 is reported as < 1000 nM.
With `CN1C(C(=O)Nc2ccc(F)c(Cl)c2)CC(c2ccc(-c3cncnc3)s2)NS1(=O)=O` (racemic) [HBV-CSU-272, Cis-N-(3-chloro-4-fluorophenyl)-2-methyl-5-(5-(pyrimidin-5-yl)thiophen-2-yl)-1,2,6-thiadiazinane-3-carboxamide 1,1-dioxide] the EC50 was < 1000 nM.
`CN1[C@@H](C(=O)Nc2ccc(F)c(Cl)c2)C[C@@H](c2ncc(-c3cn(C)cn3)s2)NS1(=O)=O` [HBV-CSU-276-ISO-II, Cis-N-(3-Chloro-4-fluorophenyl)-2-methyl-5-(5-(1-methyl-1H-imidazol-4-yl)thiazol-2-yl)-1,2,6-thiadiazinane-3-carboxamide 1,1-dioxide] was tested, and the EC50 was > 5000 nM.
For `CN1C(C(=O)Nc2ccc(F)c(Cl)c2)CC(c2cc(-c3cncn3C)cs2)NS1(=O)=O` (racemic) [HBV-CSU-285, Cis-N-(3-Chloro-4-fluorophenyl)-2-methyl-5-(4-(1-methyl-1H-imidazol-5-yl)thiophen-2-yl)-1,2,6-thiadiazinane-3-carboxamide 1,1-dioxide], the EC50 was < 1000 nM.
`[2H]C1C([2H])(c2ccc(-c3cn(C([2H])([2H])[2H])cn3)s2)NS(=O)(=O)N(C)C1([2H])C(=O)Nc1ccc(F)c(Cl)c1` (stereo not drawn) [HBV-CSU-376, Cis-N-(3-Chloro-4-fluorophenyl)-2-methyl-5-(5-(1-(methyl-d3)-1H-imidazol-4-yl)thiophen-2-yl)-1,2,6-thiadiazinane-3,4,5-d3-3-carboxamide 1,1-dioxide] was tested, and the EC50 was < 1000 nM.
With `N#CCN1[C@@H](C(=O)Nc2ccc(F)c(Cl)c2)C[C@@H](c2nccs2)NS1(=O)=O` [HBV-CSU-093-ISO-II, Cis-N-(3-Chloro-4-fluorophenyl)-2-(cyanomethyl)-5-(thiazol-2-yl)-1,2,6-thiadiazinane-3-carboxamide 1,1-dioxide] the EC50 was > 5000 nM.
Compound `CN1C(C(=O)Nc2ccc(F)c(Cl)c2)CC(c2ccc(C(F)(F)F)cc2)NS1(=O)=O` (racemic) [HBV-CSU-217, Cis-N-(3-Chloro-4-fluorophenyl)-2-methyl-5-(4-(trifluoromethyl)phenyl)-1,2,6-thiadiazinane-3-carboxamide 1,1-dioxide] has an EC50 of 1000 to 5000 nM.
`Cc1c(-c2ccc([C@@H]3C[C@H](C(=O)Nc4ccc(F)c(Cl)c4)N(C)S(=O)(=O)N3)s2)cnn1C` [HBV-CSU-312-ISO-II, Cis-N-(3-chloro-4-fluorophenyl)-5-(5-(1,5-dimethyl-1H-pyrazol-4-yl)thiophen-2-yl)-2-methyl-1,2,6-thiadiazinane-3-carboxamide 1,1-dioxide] was tested, and the EC50 was 1000 to 5000 nM.
`CN1C(C(=O)Nc2ccc(F)c(Cl)c2)CC(c2cc(-c3cccs3)cs2)NS1(=O)=O` (stereo not drawn) [HBV-CSU-170] was tested, and the EC50 was < 1000 nM.
For `Cc1sc([C@@H]2C[C@H](C(=O)Nc3ccc(F)c(Cl)c3)N(C)S(=O)(=O)N2)cc1-c1cnn(C)c1` [HBV-CSU-304-ISO-II, Cis-N-(3-Chloro-4-fluorophenyl)-2-methyl-5-(5-methyl-4-(1-methyl-1H-pyrazol-4-yl)thiophen-2-yl)-1,2,6-thiadiazinane-3-carboxamide 1,1-dioxide], the EC50 was > 5000 nM.
With `Cc1c(-c2csc(C3CC(C(=O)Nc4ccc(F)c(Cl)c4)N(C)S(=O)(=O)N3)c2)cnn1C` (stereo not drawn) [HBV-CSU-315, Cis-N-(3-chloro-4-fluorophenyl)-5-(4-(1,5-dimethyl-1H-pyrazol-4-yl)thiophen-2-yl)-2-methyl-1,2,6-thiadiazinane-3-carboxamide 1,1-dioxide] the EC50 was < 1000 nM.
With `CN1C(C(=O)Nc2ccc(F)c(Cl)c2)CC(c2cc(-c3ccc(C#N)c(F)c3)cs2)NS1(=O)=O` (racemic) [HBV-CSU-164, Cis-N-(3-chloro-4-fluorophenyl)-5-(4-(4-cyano-3-fluorophenyl)thiophen-2-yl)-2-methyl-1,2,6-thiadiazinane-3-carboxamide 1,1-dioxide] the EC50 was < 1000 nM.
With `C#CCCN1[C@@H](C(=O)Nc2ccc(F)c(Cl)c2)C[C@@H](c2nccs2)NS1(=O)=O` [HBV-CSU-090-ISO-II, Cis-2-(But-3-yn-1-yl)-N-(3-chloro-4-fluorophenyl)-5-(thiazol-2-yl)-1,2,6-thiadiazinane-3-carboxamide 1,1-dioxide] the EC50 was > 5000 nM.
For `CN1C(C(=O)Nc2ccc(F)c(Cl)c2)CC(c2ccc(F)cc2)NS1(=O)=O` (stereo not drawn) [HBV-CSU-112 (Cis), Cis-N-(3-Chloro-4-fluorophenyl)-5-(4-fluorophenyl)-2-methyl-1,2,6-thiadiazinane-3-carboxamide 1,1-dioxide], the EC50 was < 1000 nM.
In the case of `CCc1sc(C2CC(C(=O)Nc3ccc(F)c(Cl)c3)N(C)S(=O)(=O)N2)cc1-c1cnn(C)c1` (racemic) [HBV-CSU-305, Cis-N-(3-Chloro-4-fluorophenyl)-5-(5-ethyl-4-(1-methyl-1H-pyrazol-4-yl)thiophen-2-yl)-2-methyl-1,2,6-thiadiazinane-3-carboxamide 1,1-dioxide], the EC50 is reported as < 1000 nM.
In the case of `CN1C(C(=O)Nc2ccc(F)c(Cl)c2)CC(c2ccc(-c3ccc(F)cn3)s2)NS1(=O)=O` (racemic) [HBV-CSU-242, Cis-N-(3-chloro-4-fluorophenyl)-5-(5-(5-fluoropyridin-2-yl)thiophen-2-yl)-2-methyl-1,2,6-thiadiazinane-3-carboxamide 1,1-dioxide], the EC50 is reported as < 1000 nM.
